Experimental findings from PubChem BioAssay AID608 (Sanford-Burnham Center for Chemical Genomics, 2007) are described below.

Where “and” joins values, the source holds several entries; their conditions need not be identical. Equal values may be shown once. Calls of active or inactive are those of the source. The rule behind the calls is not given here.

As usually defined, the Kd is the equilibrium constant for the complex coming apart.

In this assay the target is Peptidyl-prolyl cis-trans isomerase FKBP1A (Homo sapiens) (UniProt P62942). The assay can be described thus: FKBP12 binders, biophysical, NMR detection (AID 608). The following applies: NMR binding, purified FKBP12.
Chain of Peptidyl-prolyl cis-trans isomerase FKBP1A (Homo sapiens) (P62942 whole entry, looked up): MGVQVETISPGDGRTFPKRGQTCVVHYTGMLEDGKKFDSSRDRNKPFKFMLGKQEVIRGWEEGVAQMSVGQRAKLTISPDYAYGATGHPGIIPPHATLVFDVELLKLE
On to `Cn1ccnc1C(O)c1ccccc1` (stereo not drawn), for which the Kd was > 4 mM (inactive).

As for `O=S1(=O)CCC(NC(=S)Nc2ccccc2)C1` (stereo not drawn), the Kd was > 4 mM (inactive).

Consider `O=c1[nH]cc(COCc2ccccc2)c(=O)[nH]1`, for which the Kd was > 4 mM (inactive).

Turning to `CC1(C)C=Cc2c(cc3occ(-c4ccc5c(c4)OCO5)c(=O)c3c2O)O1`, the Kd was > 4 mM (inactive).

Regarding `Nc1nc(O)c(C2=c3cc(Cl)ccc3=NC2=O)s1`, the Kd was > 4 mM (inactive).

As for `CC1CN=C(Nc2ccccc2)S1` (stereo not drawn), the Kd was > 4 mM (inactive).

For `O=C(O)c1ccccc1SCC(=O)N1CCOCC1`, the Kd was > 4 mM (inactive).

For the compound `CSc1ccc(/C=N/n2c(C)nnc2C)cc1`, the Kd is > 4 mM (inactive).

Consider `Cn1ccc(NC(=S)Nc2cccc([N+](=O)[O-])c2)n1`, for which the Kd is > 4 mM (inactive).

Turning to `Cc1ccc(C(=O)CS(C)(=O)=O)cc1`, the Kd was > 4 mM (inactive).

As for `Cc1nc2ccccc2c(=O)n1N1C(=O)CCCC1=O`, the Kd was > 4 mM (inactive).

Take `NC(=O)C1CCN(Cc2ccccc2)CC1`: the Kd was > 4 mM (inactive).

With `Cc1cc(OCC(=O)N2CCOCC2)c(C(C)C)cc1Cl`, the Kd entry is “inactive”.

`CC1CCC2(OC1)OC1CC3C4CC[C@H]5C[C@@H](O)CC[C@]5(C)C4CC(=O)[C@]3(C)C1C2C` (stereo partly drawn): the Kd is > 4 mM (inactive).

Turning to `Cn1cnc2c(=O)[nH]cc([N+](=O)[O-])c21`, the Kd was > 4 mM (inactive).

Take `CC(=O)c1cccc(NC(=O)Nc2c(C)nn(C)c2C)c1`: the Kd is > 4 mM (inactive).

On to `OC1CCCN(Cc2ccccc2)C1` (stereo not drawn), for which the Kd is > 4 mM (inactive).

As to `CCC[C@H]1CC2=C(C[C@@H](CC)CC3=C1C(=O)OC3=O)C(=O)OC2=O`, the Kd was > 4 mM (inactive).

For `COc1cc(C(C)=O)cc(OC)c1O`, the Kd is > 4 mM (inactive).

Regarding `C[C@H]1[C@H](C)CC[C@]2(CO)CC[C@]3(C)C(=CCC4[C@@]5(C)CC[C@H](O)C(C)(C)C5CC[C@]43C)[C@H]12` (stereo partly drawn), the Kd was > 4 mM (inactive).

Turning to `CC[C@H]1CN2CCc3cc(OC)c(OC)cc3C2C[C@@H]1CC1NCCc2cc(OC)c(OC)cc21` (stereo partly drawn), the Kd is > 4 mM (inactive).

As for `CC1(O)CC2C(CC1O)C2(C)C` (stereo not drawn), the Kd was > 4 mM (inactive).

For `CCC(=O)NC(=S)Nc1ccc(C(N)=O)cc1`, the Kd was > 4 mM (inactive).

Consider `COc1ccc(C(=O)NNC(=S)NC(C)=O)cc1`, for which the Kd was > 4 mM (inactive).

For the compound `Nc1nc(-c2ccc(Cl)cc2)nn1C(=O)c1cccnc1`, the Kd is > 4 mM (inactive).

With `NC(=O)CN1CCC(c2nc3ccccc3[nH]2)CC1`, the Kd is > 4 mM (inactive).

On to `Nc1c(S(=O)(=O)c2ccccc2)csc1C(=O)O`, for which the Kd is > 4 mM (inactive).

Consider `O=C(CCc1n[nH]c(=O)[nH]c1=O)NCc1ccccc1`, for which the Kd is > 4 mM (inactive).

`O=C(Nc1ccc(Cl)cc1)N1CCCC1`: the Kd entry is “inactive”.

With `CCc1noc(C)c1C(=O)N1CCCC1`, the Kd was > 4 mM (inactive).

With `Nc1cccc2cccnc12`, the Kd is > 4 mM (inactive).

As for `CCCCCCCCCCCC1=C(O)C(=O)C=C(O)C1=O`, the Kd is > 4 mM (inactive).

In the case of `CNC(=O)C(=O)Nc1ccc(C)c(C)c1`, the Kd is > 4 mM (inactive).

For the compound `CCCCCc1c2c(cc(O)c1C(=O)O)OC(=O)c1c(cc(OC)cc1C(=O)CCCC)O2`, the Kd was > 4 mM (inactive).

For `Oc1cc(O)c2c(c1)O[C@H](c1ccc(O)c(O)c1)[C@H](O)C2`, the Kd was > 4 mM (inactive).

Take `Cc1ccc(N2C(=O)CCC2=O)cc1`: the Kd was > 4 mM (inactive).

As for `COc1cc2c(cc1OC)[C@@H]1C(=O)c3ccc4oc(C(C)C)cc4c3O[C@@H]1CO2`, the Kd was > 4 mM (inactive).

As to `CN1CCC(NC(=O)Cc2c(F)cccc2Cl)CC1`, the Kd is > 4 mM (inactive).

Consider `COc1ccc(-c2cc(=O)c3c(O)cc(O[C@H]4O[C@H](CO[C@@H]5O[C@@H](C)[C@H](O)[C@@H](O)[C@H]5O)[C@@H](O)[C@H](O)[C@H]4O)cc3o2)cc1`, for which the Kd was > 4 mM (inactive).

`CSc1ccccc1NC(=O)c1ccc(C)o1`: the Kd was > 4 mM (inactive).

Take `O=C1C2CC=CCC2C(=O)N1c1ccccc1O` (stereo not drawn): the Kd was > 4 mM (inactive).

Take `Cc1nn2c(-c3ccco3)nnc2c2ccccc12`: the Kd was > 4 mM (inactive).

For the compound `CCOc1ccccc1C(=O)NC1=NCCS1`, the Kd is > 4 mM (inactive).

`Cc1nnc(SCC(=O)NCc2ccccc2)[nH]c1=O`: the Kd is > 4 mM (inactive).

`COc1ccccc1NC(=O)NC(N)=O`: the Kd was > 4 mM (inactive).

Take `Cc1nc(SCC(=O)c2c[nH]c3ccccc23)n[nH]1`: the Kd entry was “inactive”.

Turning to `Nc1cc(C(=O)N2CCCC2)cc(C(=O)N2CCCC2)c1`, the Kd is > 4 mM (inactive).

`CC1CCC(N2CCN(c3ncccn3)CC2)CC1` (stereo not drawn): the Kd is > 4 mM (inactive).

For the compound `Cn1cc(Cl)c(C(=O)NC2CCCC2)n1`, the Kd was > 4 mM (inactive).

With `CC(O)c1ccc(C(C)O)cc1` (stereo not drawn), the Kd is > 4 mM (inactive).

In the case of `NC1=NC(=O)C(Cc2ccccc2)S1` (stereo not drawn), the Kd is > 4 mM (inactive).

For `COc1ccc2c(c1OC)C(=O)O[C@H]2[C@H]1c2cc3c(cc2CCN1C)OCO3`, the Kd is > 4 mM (inactive).

Turning to `O=c1ccn(Cc2ccccc2)c(=O)[nH]1`, the Kd was > 4 mM (inactive).

For the compound `O=C1CC(c2ccccc2)n2ncnc2N1` (stereo not drawn), the Kd is > 4 mM (inactive).

As to `O=C(Cn1c(-c2cscn2)nc2ccccc21)Nc1ccc(Oc2ccc(F)cc2)cc1`, the Kd was > 4 mM (inactive).

Take `O=C1C=C(O)c2ccccc2C1=O`: the Kd is > 4 mM (inactive).

As for `CN(C)/C=N/S(=O)(=O)c1ccccc1`, the Kd was > 4 mM (inactive).

In the case of `c1ccc(-c2nsc(N3CCNCC3)n2)cc1`, the Kd was > 4 mM (inactive).

Consider `Cn1c(SCC(=O)NCCO)nc2ccccc2c1=O`, for which the Kd was > 4 mM (inactive).

For `CCCS(=O)(=O)N1CCN(c2ccccc2F)CC1`, the Kd is > 4 mM (inactive).

For the compound `N#Cc1cnn(-c2ccc(Cl)cc2)c1N`, the Kd is > 4 mM (inactive).

Turning to `COc1ccc2c(c1)O[C@H]1c3ccc(OC)cc3OC[C@@H]21`, the Kd is > 4 mM (inactive).

Consider `Cc1cc(NC(=O)CSc2ccnc(=O)[nH]2)no1`, for which the Kd is > 4 mM (inactive).

For `CC1(C)CN=C(Nc2nc3ccccc3s2)S1`, the Kd was > 4 mM (inactive).

In the case of `O=C1NC(=S)NC(=O)C1=Cc1ccccc1O`, the Kd was > 4 mM (inactive).

For the compound `O=C1NC(=S)N/C1=C\c1cccc([N+](=O)[O-])c1`, the Kd was > 4 mM (inactive).

`CC(=O)Nc1ccncc1NC(C)=O`: the Kd is > 4 mM (inactive).

As for `COC(=O)c1c(C)c2c(c(C)c1O)OC(=O)c1c(C)c(Cl)c(O)c(Cl)c1O2`, the Kd is > 4 mM (inactive).

With `O=C(c1ccco1)N1CCCN(C(=O)c2ccco2)CC1`, the Kd was 0.072 mM and 0.277 mM.

For `Nc1csc(C(=O)O)c1`, the Kd was > 4 mM (inactive).

`Nc1ccccc1N1CCOCC1`: the Kd is > 4 mM (inactive).

On to `Cc1ccc(S(=O)(=O)CCc2ccccn2)cc1`, for which the Kd was > 4 mM (inactive).

For `O=c1[nH]cc(S(=O)(=O)Nc2ccccc2)c(=O)[nH]1`, the Kd was > 4 mM (inactive).

As for `Nc1ccncc1`, the Kd is > 4 mM (inactive).

For the compound `OCC(O)C(O)C(O)CO` (stereo not drawn), the Kd is > 4 mM (inactive).

Consider `Cc1occc1C(=O)NCc1ccccc1F`, for which the Kd was > 4 mM (inactive).

Regarding `O=C(O)CCSc1nc2ccccc2s1`, the Kd was > 4 mM (inactive).

As for `O=C1NC(=Nc2ccccc2)S/C1=C/c1cccnc1`, the Kd is > 4 mM (inactive).

In the case of `CC(=O)Nc1ccc2c(c1)n(C)c(=O)n2C`, the Kd was > 4 mM (inactive).

Take `COC(=O)c1cncc(C(=O)OC)c1`: the Kd was > 4 mM (inactive).

`CC(=O)NC1=C(N(C)C)C(=O)c2ccccc2C1=O`: the Kd is > 4 mM (inactive).

For `O=c1[nH]c(=O)n(-c2ccc(F)cc2)c(O)c1/C=C1/C=CC=N1`, the Kd was > 4 mM (inactive).

In the case of `Cc1nc2ccccc2c(=O)n1/N=C/c1ccncc1`, the Kd was > 4 mM (inactive).

Turning to `CNc1nnc(Cc2csc(N)n2)s1`, the Kd is > 4 mM (inactive).

Turning to `Cc1nnsc1C(=O)Nc1ccccc1[N+](=O)[O-]`, the Kd was > 4 mM (inactive).

Take `CC(C)CCCC(C)C1CCC2C3CC(=O)[C@H]4C[C@@H](O)CC[C@]4(C)C3CC[C@]12C` (stereo partly drawn): the Kd was > 4 mM (inactive).

For `C=C1C(N)CC2CC1C2(C)C` (stereo not drawn), the Kd was > 4 mM (inactive).

As for `O=C(O)C1CC(=O)N(C2Cc3ccccc3C2)C1` (stereo not drawn), the Kd is > 4 mM (inactive).

As for `Cc1nc2ccccc2c(=O)n1NC(=O)C1CCCCC1`, the Kd is > 4 mM (inactive).

`CNC(=O)c1ccccc1N`: the Kd is > 4 mM (inactive).

As to `COc1ccc(NC(=O)c2ccc[n+]([O-])c2)cc1`, the Kd was > 4 mM (inactive).

With `Cc1nn2c(nc1=O)SCC(c1ccccc1)=N2`, the Kd was > 4 mM (inactive).

Take `Nc1ncc2[nH]cnc2n1`: the Kd was > 4 mM (inactive).

Turning to `Cc1onc(-c2ccccc2)c1CN`, the Kd is > 4 mM (inactive).

As for `COc1cccc(NC(=O)c2nc3ncccn3n2)c1`, the Kd is > 4 mM (inactive).

For `CSc1ccccc1NC(=O)c1ccncc1`, the Kd is > 4 mM (inactive).

For the compound `Cc1c(/C=N\n2cnnc2)c2ccccc2n1C`, the Kd is > 4 mM (inactive).

Take `Cc1ccc(NC(=O)c2ccccc2)s1`: the Kd is > 4 mM (inactive).

Turning to `O=C(O)CNC(=O)c1ccccc1Cl`, the Kd was > 4 mM (inactive).

With `Cc1c(C(=O)N2CCOCC2)oc2c1C(=O)CC(C)(C)C2`, the Kd is > 4 mM (inactive).

As for `O=c1[nH]nnc2sc3c(c12)CCCC3`, the Kd is > 4 mM (inactive).

On to `Cc1cc(C)n(S(=O)(=O)c2cc(C)c(C)cc2C)n1`, for which the Kd is > 4 mM (inactive).

For `O=C(Nc1nccs1)c1ccc(=O)[nH]n1`, the Kd was > 4 mM (inactive).
